Laboratory results: US20190358182A1, “NOVEL MECHANISM FOR DECREASING OPIOID REWARD” (THE TRUSTEES OF INDIANA UNIVERSITY, priority 2018, published 2019)
“Also recorded” adds a separate entry of the source.

Legend:
mice = settings: wild type (WT) but not nNOS −/− mice; cited from earlier work
rats [1] = settings: for conditioned place preference to morphine on coadministration: inhibitor 10 mg/kg i.p. × 4 pairings with morphine 6 mg/kg i.p., FIG. 4E, 4F
PSD95-ERB4 = PSD95-ERB4 (Homo sapiens, UniProt P78352); test: Alphascreen, interaction of PSD95 with unrelated proteins; format: binding; settings: FIG. 2
[2] = cited from earlier work; for pain hypersensitivity / pathological pain: chronic pain models; for nociceptive responding / basal nociceptive thresholds without injury: naïve animals, absence of injury
nNOS with PSD95 = target: T1, nNOS with PSD95 (Mus musculus, UniProt Q62108+Q9Z0J4); settings: WT but not nNOS −/− mice; cited from earlier work
T1 construct: host or cells: ischemic cortex of wild-type mice

Morris Water maze = format: in vivo; settings: FIG. 5A
rats [3] = test: Radial arm maze task for source and spatial working memory; settings: MK801 0.1 or 0.2 mg/kg i.p., IC87201 and ZL006 10 mg/kg i.p., 30 min after injection
Description: Rats were trained in a radial arm maze task that tests both source and spatial working memory for these experiments. Data are average of three trials 30 min after drug injection (n=6/group).
Memory impairment can confound CPP studies that depend on learning. Experiments were conducted to determine whether PSD95-nNOS inhibitors impair normal memory functions or show favorable side effect profiles compared to NMDAR antagonist MK801. We used a highly sensitive “source memory” task developed by applicants for use in rats to better mimic types of memory that are actually impaired in humans.

rats [4] = test: Single trial conditioned place preference (CPP); format: in vivo, rat; settings: for single trial CPP to the inhibitor alone: acute treatment alone, data not shown; for single trial morphine-induced CPP on acute co-treatment: rats, FIG. 3B, 3C
From the text: FIGS. 3A-3C present data from a conditioned place preference study where one chamber was paired with the drug treatment and the other chamber was paired with the vehicle. Animals are subsequently tested in the drug free state to determine if the drug pairing produced reward or aversion in the animals.

DA efflux in NAc shell = test: Fast-scan cyclic voltammetry of electrically evoked DA in NAc shell; format: in vivo, rat
From the text: Design and Rationale: Although FSCV can record spontaneously occurring DA transients in behaving animals, the anesthetized preparation is preferred because it provides reliable and reproducible DA signals independent of behavioral activity. In fact, the fluctuating and intermittent nature of behavior-related DA signals (e.g.,) could confound efforts to establish a first-ever characterization of PSD95-nNOS disrupters on DA dynamics. […] Rats are fixed in a stereotaxic frame, and a carbon-fiber working electrode (6 μm diameter) is lowered into NAc shell. A bipolar stimulating electrode is lowered over the ipsilateral MFB to evoke endogenous DA release. An Ag/AgCl reference is placed on the contralateral cortex. […] Voltammograms are obtained every 100 ms at a scan rate of 400 v/s.
The basic design is to collect baseline DA signals (30 min) evoked by MFB stimulation, administer (ip) test drug(s) or vehicle, and collect post-administration evoked DA signals. […] The effects of each compound (injected i.p.) will be monitored for at least 60 min and tested in separate groups of rats (n=10/group). […] To evoke DA release, we apply a biphasic current (60 Hz, 0.4 s, 300 μA) to the stimulating electrode.
Stimulations at 60 Hz are applied every 2 min to ensure renewal of the readily releasable DA pool. Evoked signals are resolved into respective rates for release and uptake, and pre- and postdrug data are compared. Upon completion of recording, the working electrode is used for postcalibration testing to estimate the in vivo concentration of DA. The analysis used to assess changes in DA release and uptake involves a modification of Michaelis-Menten kinetics. We use mathematical modeling that describes the rate of change in evoked DA concentration as the counteracting balance of release and reuptake: d[DA]/dt=[DA]p*f−Vmax/(Km/[DA]+1), where [DA] is the extracellular DA concentration, [DA]p refers to the extracellular DA concentration evoked per stimulus pulse, Vmax represents the Michaelis-Menten term for maximal uptake rate, Km is the Michaelis-Menten term inversely proportional to transporter affinity, and f is the frequency of the stimulation train. Thus, both Km and Vmax are Michaelis-Menten rate constants that describe uptake (see FIG. 7B). [DA]p describes the rate of stimulated release. Km is held constant at a 0.2 μM, the reported value in striatum for anesthetized rodents. [DA]p and Vmax are determined by the above equation in combination with curve-fitting software that incorporates a simplex minimization algorithm.

Rota-rod test = format: in vivo; settings: 10-30 mg/kg i.p., FIG. 5B
[5] = test system: NMDA-induced NO formation; test: NMDA-induced NO formation / cGMP levels in primary hippocampal cultures; format: cell-based; settings: for NMDA-induced NO formation: data not shown, Smith et al. (2016); for NMDA-stimulated cGMP levels: primary hippocampal cultures, published in Smith et al. (2016)
PSD95-nNOS [6] = target: T2, PSD95-nNOS (Homo sapiens, UniProt P29475+P78352); test: Alphascreen in vitro assay of PSD95-nNOS binding (purified proteins); settings: purified nNOS and PSD95 proteins, FIG. 2
From the text: Mechanism: We developed an in vitro assay using Alphascreen to establish whether IC87201 and ZL006 directly disrupt interactions between purified nNOS and PSD95 proteins. […] A later group identified ZL006.

[7] = Novel object recognition test; format: in vivo; settings: data not shown
rats [8] = settings: cited from earlier work
rats [9] = test: Morphine self-administration, FR1 schedule (preliminary study); format: in vivo, rat; settings: morphine 0.1 mg/kg/injection
PSD95-nNOS [10] = target: T2, PSD95-nNOS; settings: as described for the control compound; cited from earlier work

PSD95-ERB4, sequence (P78352 whole entry): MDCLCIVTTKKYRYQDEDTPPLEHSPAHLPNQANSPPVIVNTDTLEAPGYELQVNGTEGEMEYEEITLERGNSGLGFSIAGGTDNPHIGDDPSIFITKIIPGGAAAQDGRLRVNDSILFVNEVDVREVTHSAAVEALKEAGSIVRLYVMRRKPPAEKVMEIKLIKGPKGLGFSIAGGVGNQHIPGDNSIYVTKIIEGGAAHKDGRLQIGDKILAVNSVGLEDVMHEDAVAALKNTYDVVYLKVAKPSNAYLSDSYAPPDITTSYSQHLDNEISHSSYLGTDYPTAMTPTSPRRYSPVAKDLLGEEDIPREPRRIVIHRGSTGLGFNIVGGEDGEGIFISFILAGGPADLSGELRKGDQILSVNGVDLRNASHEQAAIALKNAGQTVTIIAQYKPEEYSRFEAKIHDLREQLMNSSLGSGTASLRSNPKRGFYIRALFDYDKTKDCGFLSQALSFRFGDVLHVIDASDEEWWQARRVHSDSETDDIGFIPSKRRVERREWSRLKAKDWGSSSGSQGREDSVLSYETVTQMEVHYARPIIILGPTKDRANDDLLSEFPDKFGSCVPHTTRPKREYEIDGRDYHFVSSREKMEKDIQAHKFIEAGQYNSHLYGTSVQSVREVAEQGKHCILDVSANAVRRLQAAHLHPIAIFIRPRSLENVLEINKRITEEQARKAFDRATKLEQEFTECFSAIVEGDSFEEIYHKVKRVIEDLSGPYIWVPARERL
T2 sequence (P78352 whole entry): as above
T2 sequence (P29475 whole entry): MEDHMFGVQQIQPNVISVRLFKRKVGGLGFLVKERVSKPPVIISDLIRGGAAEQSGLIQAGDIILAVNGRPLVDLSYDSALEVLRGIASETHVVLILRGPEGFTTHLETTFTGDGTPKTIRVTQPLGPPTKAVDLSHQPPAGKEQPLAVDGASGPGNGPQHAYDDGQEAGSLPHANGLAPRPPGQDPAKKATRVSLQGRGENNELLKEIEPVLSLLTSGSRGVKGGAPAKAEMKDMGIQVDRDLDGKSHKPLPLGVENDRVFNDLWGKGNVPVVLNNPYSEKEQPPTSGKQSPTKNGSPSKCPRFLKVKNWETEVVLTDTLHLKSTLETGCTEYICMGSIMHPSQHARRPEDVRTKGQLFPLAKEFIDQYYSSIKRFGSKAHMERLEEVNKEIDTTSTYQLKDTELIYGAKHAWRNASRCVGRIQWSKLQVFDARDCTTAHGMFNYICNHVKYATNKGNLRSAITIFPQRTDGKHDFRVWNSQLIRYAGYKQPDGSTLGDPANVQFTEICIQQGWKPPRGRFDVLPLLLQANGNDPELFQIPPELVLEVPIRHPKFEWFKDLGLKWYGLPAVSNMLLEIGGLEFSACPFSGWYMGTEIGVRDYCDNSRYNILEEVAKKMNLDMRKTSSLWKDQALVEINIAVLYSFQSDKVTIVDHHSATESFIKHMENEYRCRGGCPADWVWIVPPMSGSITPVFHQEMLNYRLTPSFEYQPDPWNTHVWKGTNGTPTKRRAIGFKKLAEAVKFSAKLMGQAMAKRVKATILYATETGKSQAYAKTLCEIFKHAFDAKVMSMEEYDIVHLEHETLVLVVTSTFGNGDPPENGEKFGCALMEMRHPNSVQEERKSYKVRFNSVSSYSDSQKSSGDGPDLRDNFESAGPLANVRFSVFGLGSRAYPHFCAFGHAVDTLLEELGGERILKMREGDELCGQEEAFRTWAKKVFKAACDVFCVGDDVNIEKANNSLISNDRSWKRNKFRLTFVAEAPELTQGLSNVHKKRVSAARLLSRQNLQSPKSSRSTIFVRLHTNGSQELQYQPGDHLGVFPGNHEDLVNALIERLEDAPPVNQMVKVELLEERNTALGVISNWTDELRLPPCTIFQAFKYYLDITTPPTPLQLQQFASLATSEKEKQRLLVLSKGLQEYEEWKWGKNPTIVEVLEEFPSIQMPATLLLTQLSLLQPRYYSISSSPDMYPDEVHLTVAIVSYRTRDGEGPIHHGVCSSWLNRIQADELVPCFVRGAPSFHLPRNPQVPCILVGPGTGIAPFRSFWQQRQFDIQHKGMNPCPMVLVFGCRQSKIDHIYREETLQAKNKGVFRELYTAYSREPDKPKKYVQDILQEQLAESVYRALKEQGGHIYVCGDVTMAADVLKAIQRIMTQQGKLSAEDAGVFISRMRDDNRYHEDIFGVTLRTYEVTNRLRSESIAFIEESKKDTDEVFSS
T1 sequence (Q9Z0J4 whole entry): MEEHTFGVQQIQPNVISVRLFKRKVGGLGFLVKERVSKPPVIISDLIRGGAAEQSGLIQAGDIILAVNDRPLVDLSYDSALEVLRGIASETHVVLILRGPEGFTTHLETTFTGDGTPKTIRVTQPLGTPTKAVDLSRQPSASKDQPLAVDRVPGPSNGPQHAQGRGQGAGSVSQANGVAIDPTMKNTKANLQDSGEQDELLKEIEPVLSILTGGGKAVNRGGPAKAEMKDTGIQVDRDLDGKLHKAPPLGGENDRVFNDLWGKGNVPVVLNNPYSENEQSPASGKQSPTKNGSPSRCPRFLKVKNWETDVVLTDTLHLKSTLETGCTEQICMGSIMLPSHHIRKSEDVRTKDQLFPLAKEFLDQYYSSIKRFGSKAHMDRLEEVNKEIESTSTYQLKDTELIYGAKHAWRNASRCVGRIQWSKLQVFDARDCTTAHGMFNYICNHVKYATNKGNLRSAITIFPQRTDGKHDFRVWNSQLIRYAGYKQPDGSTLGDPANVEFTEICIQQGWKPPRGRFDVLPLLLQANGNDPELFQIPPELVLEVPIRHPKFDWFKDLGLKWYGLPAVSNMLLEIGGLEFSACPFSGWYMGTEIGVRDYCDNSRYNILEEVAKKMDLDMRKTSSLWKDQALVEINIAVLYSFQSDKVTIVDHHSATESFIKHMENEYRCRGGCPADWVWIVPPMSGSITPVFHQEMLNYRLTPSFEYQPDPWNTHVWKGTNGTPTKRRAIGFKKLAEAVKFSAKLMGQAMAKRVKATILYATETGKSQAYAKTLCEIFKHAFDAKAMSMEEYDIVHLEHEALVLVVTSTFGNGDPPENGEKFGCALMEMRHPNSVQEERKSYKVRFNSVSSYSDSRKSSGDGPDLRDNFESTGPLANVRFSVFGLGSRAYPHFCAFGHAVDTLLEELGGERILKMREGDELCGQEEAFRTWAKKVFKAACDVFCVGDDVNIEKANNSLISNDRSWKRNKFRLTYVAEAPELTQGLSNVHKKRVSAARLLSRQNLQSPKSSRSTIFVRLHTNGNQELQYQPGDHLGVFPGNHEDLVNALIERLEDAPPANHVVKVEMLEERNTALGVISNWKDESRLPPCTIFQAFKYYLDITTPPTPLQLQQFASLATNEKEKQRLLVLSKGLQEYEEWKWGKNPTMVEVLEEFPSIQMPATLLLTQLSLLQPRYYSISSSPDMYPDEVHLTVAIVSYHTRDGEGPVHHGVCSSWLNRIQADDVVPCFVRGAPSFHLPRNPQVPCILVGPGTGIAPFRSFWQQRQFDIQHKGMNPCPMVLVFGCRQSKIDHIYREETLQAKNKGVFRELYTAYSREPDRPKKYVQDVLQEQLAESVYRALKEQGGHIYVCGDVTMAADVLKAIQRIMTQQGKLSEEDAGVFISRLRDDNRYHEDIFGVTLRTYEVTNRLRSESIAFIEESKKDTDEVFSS
T1 sequence (Q62108 whole entry): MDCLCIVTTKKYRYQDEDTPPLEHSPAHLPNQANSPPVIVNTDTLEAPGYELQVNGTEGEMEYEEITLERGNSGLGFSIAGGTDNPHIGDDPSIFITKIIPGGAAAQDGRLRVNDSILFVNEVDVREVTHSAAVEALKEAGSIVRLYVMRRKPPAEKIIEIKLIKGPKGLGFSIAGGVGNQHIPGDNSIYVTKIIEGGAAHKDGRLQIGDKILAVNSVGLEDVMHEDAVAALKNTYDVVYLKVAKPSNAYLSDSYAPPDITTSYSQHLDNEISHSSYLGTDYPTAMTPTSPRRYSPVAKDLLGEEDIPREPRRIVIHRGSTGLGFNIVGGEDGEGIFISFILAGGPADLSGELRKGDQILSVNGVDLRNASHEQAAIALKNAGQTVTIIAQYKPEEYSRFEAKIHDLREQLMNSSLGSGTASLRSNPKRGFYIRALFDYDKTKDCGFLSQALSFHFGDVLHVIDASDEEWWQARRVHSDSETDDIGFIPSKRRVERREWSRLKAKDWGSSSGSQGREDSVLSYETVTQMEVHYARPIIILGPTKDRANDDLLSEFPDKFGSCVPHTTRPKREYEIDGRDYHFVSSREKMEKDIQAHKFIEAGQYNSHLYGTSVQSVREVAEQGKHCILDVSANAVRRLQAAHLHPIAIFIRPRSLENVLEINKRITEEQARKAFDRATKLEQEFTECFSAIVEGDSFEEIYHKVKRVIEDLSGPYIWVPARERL

SMILES: O=C(O)c1ccc(NCc2cc(Cl)cc(Cl)c2O)cc1O [ZL006]
- ischemia induced damage (mice): inhibits ischemia induced damage
- conditioned place preference to morphine on coadministration (rats [1]): conditioned place preference to morphine was no longer observed
- disruption of unrelated PSD95-ERB4 interactions (PSD95-ERB4): not unrelated PSD95-ERB4 interactions; also recorded: without disrupting interaction of PSD95 with unrelated proteins
- pain hypersensitivity / pathological pain [2]: suppress pain hypersensitivity
- nociceptive responding / basal nociceptive thresholds without injury [2]: without altering nociceptive responding
- association of nNOS with PSD95 in ischemic cortices (nNOS with PSD95): inhibits the association of nNOS with PSD95 in ischemic cortices
- memory in the Morris Water maze (Morris Water maze): do not impair memory
- source memory (rats [3]): failed to impair spatial memory or source memory
- spatial working memory (rats [3]): failed to impair spatial memory or source memory
- single trial CPP to the inhibitor alone (rats [4]): failed to do so
- single trial morphine-induced CPP on acute co-treatment (rats [4]; morphine 6 mg/kg i.p.): blocked
- morphine-induced dopamine efflux on co-administration (DA efflux in NAc shell; ZL006 10 mg/kg i.p. with morphine 6 mg/kg i.p., NAc shell, FIG. 8C): blocked the morphine-induced increase in evoked DA in NAc shell; also recorded: suppresses morphine-induced dopamine efflux in nucleus accumbens shell
- amount of DA released per stimulus pulse (DA efflux in NAc shell; ZL006 10 mg/kg i.p., FIG. 7C): does not affect the amount of DA released per stimulus pulse
- amount of DA uptake per stimulus pulse (DA efflux in NAc shell; ZL006 10 mg/kg i.p., FIG. 7D): does not affect the amount of DA uptake per stimulus pulse
- evoked DA response before and 30 min after drug (DA efflux in NAc shell; ZL006 10 mg/kg i.p., anesthetized rat, FIG. 8B, pilot data, 10 mg/kg): clear decrease in DA signal within 30 min; also recorded: decrease in DA evoked response
- evoked dopamine (DA) efflux, drug alone (DA efflux in NAc shell; medial forebrain bundle stimulation, morphine 6 mg/kg i.p., ZL006 10 mg/kg i.p., FIG. 7A, 7B): does not increase dopamine (DA) efflux
- motor performance in the rota-rod test (Rota-rod test): did not impair
- NMDA-induced NO formation [5]: inhibit NMDA-induced NO formation
- NMDA-stimulated cGMP levels [5]: suppressed NMDA-stimulated cGMP levels
- disruption of PSD95-nNOS interaction / binding (PSD95-nNOS [6]): disrupt PSD95-nNOS; also recorded: inhibited PSD95-nNOS binding
- memory in the novel object recognition test [7]: did not impair memory

SMILES: COC(=O)[C@@H](N)CCCNC(=N)N[N+](=O)[O-] [L-NAME]
- L-arginine enhancement of acquisition of CPP to morphine (rats [8]; NOS inhibitor): this enhancement was blocked

SMILES: N=C(N)NCCC[C@H](N)C(=O)O [L-arginine]
- acquisition of CPP to morphine (rats [8]; NO donor in the central amygdala): increased acquisition of CPP to morphine

SMILES: C[C@]12N[C@H](Cc3ccccc31)c1ccccc12 [MK801, reference compound]
- morphine-induced CPP (rats [8]; rats, MK801 0.1 mg/kg i.p., doses that do not alter chamber preference): blocked
- source memory (rats [3]): eliminated (i.e. did not differ from chance)
- spatial working memory (rats [3]): unaffected
- NMDA-stimulated cGMP levels [5]: suppressed NMDA-stimulated cGMP levels

SMILES: CN1CC[C@]23c4c5ccc(O)c4O[C@H]2[C@@H](O)C=C[C@H]3[C@H]1C5 [morphine, reference compound]
- conditioned place preference to morphine, repeated pairings (rats [1]; morphine 6 or 10 mg/kg i.p. × 4 pairings, FIG. 4C, 4D): produced robust conditioned place preference
- single trial CPP to the drug alone (morphine) (rats [4]; naïve rats, morphine 6 mg/kg i.p., FIG. 3A): robust single trial CPP
- active versus inactive lever presses in self-administration (rats [9]; FR1, naïve, sham and neuropathic rats): Active lever presses were greater than inactive presses in all groups
- mechanical thresholds (rats [9]; naïve rats, FIG. 6A): did not alter mechanical thresholds

SMILES: O=C(O)c1cc(NCc2cc(Cl)cc(Cl)c2O)ccc1O [ZL007, reference compound]
- disruption of PSD95-nNOS interactions by the inactive analog (PSD95-nNOS [10]): does not disrupt PSD95-nNOS interactions

SMILES: Oc1c(Cl)cc(Cl)cc1CNc1ccc2[nH]nnc2c1 [IC87201]
- conditioned place preference to morphine on coadministration (rats [1]): conditioned place preference to morphine was no longer observed
- disruption of unrelated PSD95-ERB4 interactions (PSD95-ERB4): not unrelated PSD95-ERB4 interactions; also recorded: without disrupting interaction of PSD95 with unrelated proteins
- pain hypersensitivity / pathological pain [2]: suppress pain hypersensitivity; also recorded: suppresses pathological pain
- nociceptive responding / basal nociceptive thresholds without injury [2]: without altering nociceptive responding; also recorded: without altering basal nociceptive thresholds
- memory in the Morris Water maze (Morris Water maze): do not impair memory
- source memory (rats [3]): failed to impair spatial memory or source memory
- spatial working memory (rats [3]): failed to impair spatial memory or source memory
- single trial CPP to the inhibitor alone (rats [4]): failed to do so
- single trial morphine-induced CPP on acute co-treatment (rats [4]; morphine 6 mg/kg i.p.): blocked
- motor performance in the rota-rod test (Rota-rod test): did not impair
- NMDA-induced NO formation [5]: inhibit NMDA-induced NO formation
- NMDA-stimulated cGMP levels [5]: suppressed NMDA-stimulated cGMP levels
- disruption of PSD95-nNOS interaction / binding (PSD95-nNOS [6]): disrupt PSD95-nNOS; also recorded: inhibited PSD95-nNOS binding
- memory in the novel object recognition test [7]: did not impair memory
